What all share (test): DTP human tumour cell line panel, 48 h
Assay [1] has as its system 786-0 renal.
The test system of assay [2] is HCC-2998 colon.
For assay [3], the system named is HL-60(TB) leukemia.
In assay [4] the test system is IGROV1 ovarian.
Assay [5] concerns K-562 leukemia.
The test system of assay [6] is NCI-H226 lung.
The subject of assay [7] is NCI-H23 lung.
The subject of assay [8] is NCI/ADR-RES ovarian.
For assay [9], the system named is OVCAR-8 ovarian.
The subject of assay [10] is RPMI-8226 leukemia.
For assay [11], the system named is SF-268 CNS.
In assay [12] the test system is SF-295 CNS.
For assay [13], the system named is SF-539 CNS.
Assay [14] has as its system SK-OV-3 ovarian.
Assay [15] has as its system U251 CNS.
The test system of assay [16] is UACC-257 melanoma.
Assay [17] deals with UO-31 renal.
For assay [18], the system named is MALME-3M melanoma.
In assay [19] the test system is HS 578T breast.

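The compound was tested at five concentrations on cells cultured in 96-well plates, with a 48-hour exposure period. At the TGI there is no net growth.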 Where only a bound is given, the exact number is not on record here.

By TGI is commonly meant the concentration giving total growth inhibition. Take `COc1ccc(Nc2nc(N)c(C(=O)c3ccc(OC)cc3)s2)cc1`: the TGI was over 41.9 µM in assay [1]; over 29.7 µM in assay [2]; 0.802 µM in assay [3]; 32 µM in [4]; over 35.8 µM in [5]; 75.8 µM in assay [6]. Also, the TGI in assay [7] is over 93.4 µM; in [8], over 100 µM; in [9], over 74.5 µM; in [10], 0.659 µM; in assay [11], over 100 µM; in assay [12], 40.6 µM. Besides, the concentration for total growth inhibition (TGI) in assay [13] is 23 µM; in [14], 28.7 µM; in [15], 17.2 µM; in assay [16] it was over 100 µM; in [17], 44.3 µM.
`CO[C@@](c1ccccc1)(c1nc(C#N)c(N)o1)C(F)(F)F`: the TGI in [1], in assay [2], in assay [4], in assay [5], in assay [18] and in assay [6] was over 100 µM in each case. Moreover, the TGI in assay [7], in assay [8], in assay [9], in [10], in assay [12] and in assay [13] was over 100 µM throughout. The TGI in assay [14], in [15], in assay [16] and in assay [17] was over 100 µM throughout.
`O=C1/C(=C/c2ccc(Cl)cc2)NC(=S)N1CN1CCOCC1`: the concentration for total growth inhibition (TGI) in assay [1], in assay [19], in [4], in [5], in assay [18] and in assay [6] was over 100 µM in each case. In addition, the TGI in [7], in assay [8], in assay [9], in assay [10], in assay [11] and in assay [12] was over 100 µM in each case. The total growth inhibition concentration (TGI) in assay [14], in [15], in assay [16] and in assay [17] was over 100 µM in each case.
For the compound `CO/C(=N\N=C\c1ccc(OC)cc1OC)c1ccncc1`, the TGI in assay [1], in assay [2], in assay [3], in [4], in assay [5] and in assay [18] was over 10 µM each time. Also, the total growth inhibition concentration (TGI) in assay [6], in [7], in assay [8], in [9], in [10] and in [11] was over 10 µM throughout. In addition, the total growth inhibition concentration (TGI) in assay [12], in assay [13], in [14], in assay [15] and in assay [17] was over 10 µM throughout.
On to `CC1(C)OC(=O)C(C)(C)OC1=O`, for which the TGI in assay [1], in [3], in [19], in assay [4], in [5] and in assay [18] was over 100 µM in each case. The TGI in assay [6], in assay [7], in [8], in [9], in [10] and in assay [11] was over 100 µM in each case. The TGI in assay [12], in assay [13], in assay [14], in assay [15], in [16] and in [17] was over 100 µM in each case.
On to `COC(C/C(=C/CO[Si](C(C)C)(C(C)C)C(C)C)C(=O)Nc1ccccc1I)OC`, for which the TGI in assay [1] was over 100 µM; in [2], 40 µM; in [19], over 100 µM; in assay [4] it was 28.7 µM; in assay [5], over 100 µM; in [18], 31.8 µM. Moreover, the total growth inhibition concentration (TGI) in [6] was 98.5 µM; in assay [7], over 100 µM; in [8], over 100 µM; in [9], over 100 µM; in assay [10] it was 43.4 µM; in assay [11] it was over 100 µM. In addition, the TGI in assay [12] is 28.2 µM; in assay [13], 48.4 µM; in [14], over 100 µM; in assay [15] it was over 100 µM; in assay [16] it was over 100 µM; in assay [17] it was over 100 µM.
Take `C#CCCOC1(OC)N=NC(C)(C)O1` (stereo not given): the TGI in assay [1], in assay [2], in assay [3], in [19], in assay [4] and in assay [5] was over 100 µM each time. Further, the concentration for total growth inhibition (TGI) in [18], in [6], in assay [7], in [8], in assay [9] and in [10] was over 100 µM in each case. The TGI in assay [11], in assay [12], in assay [13], in [15], in [16] and in assay [17] was over 100 µM in each case.

For the origin of these results see PubChem BioAssay (NCI).
